The results in this text go back to patent US10858360B2, “Tricyclic gyrase inhibitors” (priority 2011, dated 2020).

Molecules are shown by their SMILES. Converted amounts (≈) assume the structure as drawn.

One may read the MIC as the lowest concentration that inhibits growth of the organism. A high value points to a less susceptible organism.

For one experiment, the system named is S. aureus ATCC 13709. Nature of the experiment: MIC, S. aureus ATCC 13709 (Alamar Blue broth microdilution). As to conditions: Alamar Blue read after overnight incubation at 35° C.; for MIC Sa: S. aureus; for MIC: Staphylococcus aureus, ATCC13709, S. aureus. It is filed as cell-based. In general terms: The colour change of resazurin is a common sign of viable cells or microbes.

The next experiment deals with E. coli ATCC 25922. Nature of the experiment: MIC, E. coli ATCC 25922. Particulars: Alamar Blue read after overnight incubation at 35° C.; for MIC Ec: E. coli; for MIC: Escherichia coli, ATCC25922, E. coli. It is filed as cell-based.

Take `CNc1cc(F)cc2c1[nH]c1nc(Oc3cnc(C)nc3)nc(N3CC4CCC(N)C4C3)c12` (stereo not shown) [4.102]: the “MIC Sa” value in the experiment with S. aureus ATCC 13709 was at most 0.5 µg/mL. Moreover, in the experiment on E. coli ATCC 25922, the “MIC Ec” value was 2 µg/mL (≈ 4.46 µM).
`CNc1cc(F)cc2c1[nH]c1nc(Oc3cnc(C)nc3)nc(N3CC4CC(N)CC4C3)c12` (stereo not shown) [4.104]: in the experiment on S. aureus ATCC 13709, the “MIC Sa” value is at most 0.5 µg/mL. Further, the “MIC Ec” value in the experiment on E. coli ATCC 25922 is at most 0.5 µg/mL.
Consider `CNc1cc(F)cc2c1[nH]c1nc(Oc3cnc(C)nc3)nc(N3CC4C(CN)C4C3)c12` (stereo not shown) [4.106], for which the “MIC Sa” value in the experiment on S. aureus ATCC 13709 is at most 0.5 µg/mL. The “MIC Ec” value in the experiment on E. coli ATCC 25922 came to 2 µg/mL (≈ 4.6 µM).
On the same counts, the results for `CNc1cc(F)cc2c1[nH]c1nc(Oc3cnc(C)nc3)nc(N3CCC4(CC3)NC(=O)NC4=O)c12` [4.107] are over 16 µg/mL and over 16 µg/mL.
For `CNc1cc(F)cc2c1[nH]c1nc(Oc3cnc(C)nc3)nc(NCCCN)c12` [4.108], the “MIC Sa” value against S. aureus ATCC 13709 was found to be 4 µg/mL (≈ 10.1 µM). In addition, the “MIC Ec” value against E. coli ATCC 25922 is over 16 µg/mL.
For the compound `CNc1cc(F)cc2c1[nH]c1nc(Oc3cnc(C)nc3)nc(NC3CCCC[C@@H]3N)c12` (stereo partly shown) [4.109], in the experiment with S. aureus ATCC 13709, the “MIC Sa” value was at most 0.5 µg/mL. Moreover, the “MIC Ec” value in the experiment on E. coli ATCC 25922 worked out at 1 µg/mL (≈ 2.29 µM).
Taken in the same sequence, the figures for `CNc1cc(F)cc2c1[nH]c1nc(Oc3cnc(C)nc3)nc(N3CC4CC(N)C4C3)c12` (stereo not shown) [4.110] were at most 0.5 µg/mL and at most 0.5 µg/mL.
On the same counts, the results for `CNc1cc(F)cc2c1[nH]c1nc(Oc3cnc(C)nc3)nc(N3CC4CC(N)C4C3)c12` (stereo not shown) [4.111] are at most 0.5 µg/mL and at most 0.5 µg/mL.
On the same counts, the results for `CNc1cc(F)cc2c1[nH]c1nc(Oc3cnc(C)nc3)nc(N3CC4CCC(CN)C4C3)c12` (stereo not shown) [4.112] are at most 0.5 µg/mL and 1 µg/mL (≈ 2.16 µM).
Regarding `CNc1cc(F)cc2c1[nH]c1nc(Oc3cnc(C)nc3)nc(N3CC4NCCOC4C3)c12` (stereo not shown) [4.114], in the experiment with S. aureus ATCC 13709, the “MIC Sa” value is at most 0.5 µg/mL. Besides, the “MIC Ec” value with E. coli ATCC 25922 stood at 2 µg/mL (≈ 4.44 µM).
`CNc1cc(F)cc2c1[nH]c1nc(Oc3cnc(C)nc3)nc(N3CC(N)CC3C)c12` (stereo not shown) [4.115]: the “MIC Sa” value in the experiment with S. aureus ATCC 13709 was found to be 1 µg/mL (≈ 2.37 µM). Further, the “MIC Ec” value in the experiment on E. coli ATCC 25922 was determined as 8 µg/mL (≈ 18.9 µM).
Taken in the same sequence, the figures for `CNc1cc(F)cc2c1[nH]c1nc(Oc3cnc(C)nc3)nc(N3CC4CCNC4(C)C3)c12` (stereo not shown) [4.116] were at most 0.5 µg/mL and at most 0.5 µg/mL.
Regarding `CNc1cc(F)cc2c1[nH]c1nc(Oc3cnc(C)nc3)nc(N3CC4(CCCN4)C3)c12` [4.119], the “MIC Sa” value against S. aureus ATCC 13709 is at most 0.5 µg/mL. Moreover, the “MIC Ec” value with E. coli ATCC 25922 was 2 µg/mL (≈ 4.6 µM).
On the same counts, the results for `CNc1cc(F)cc2c1[nH]c1nc(Oc3cnc(C)nc3)nc(N3CC4(CCN4)C3)c12` [4.120] are at most 0.5 µg/mL and 1 µg/mL (≈ 2.38 µM).
On the same counts, the results for `CNc1cc(F)cc2c1[nH]c1nc(Oc3cnc(C)nc3)nc(N3CC4CONC4C3)c12` (stereo not shown) [4.122] are at most 0.5 µg/mL and 1 µg/mL (≈ 2.29 µM).
For the compound `CNc1cc(F)cc2c1[nH]c1nc(Oc3cnc(C)nc3)nc(N3CC4CCC(N)C3C4)c12` (stereo not shown) [4.123], the “MIC Sa” value with S. aureus ATCC 13709 turned out to be 16 µg/mL (≈ 35.7 µM). In the experiment on E. coli ATCC 25922, the “MIC Ec” value was over 16 µg/mL.
For `CNc1cc(F)cc2c1[nH]c1nc(Oc3cnc(C)nc3)nc(N3CC(NC(=O)C(N)CO)C4(CC4)C3)c12` (stereo not shown) [4.124], the “MIC Sa” value with S. aureus ATCC 13709 was at most 0.5 µg/mL. Also, the “MIC Ec” value with E. coli ATCC 25922 came to 8 µg/mL (≈ 15.3 µM).
Regarding `CNc1cc(F)cc2c1[nH]c1nc(Oc3cnc(C)nc3)nc(N3CCC4(CNC4)C3)c12` [4.125], the “MIC Sa” value with S. aureus ATCC 13709 is at most 0.5 µg/mL. The “MIC Ec” value with E. coli ATCC 25922 is 4 µg/mL (≈ 9.21 µM).
In the case of `CNc1cc(F)cc2c1[nH]c1nc(Oc3cnc(C)nc3)nc(N3CCC4(CCNC4)C3)c12` (stereo not shown) [4.126], the “MIC Sa” value against S. aureus ATCC 13709 was at most 0.5 µg/mL. The “MIC Ec” value in the experiment with E. coli ATCC 25922 stood at 2 µg/mL (≈ 4.46 µM).
Taken in the same sequence, the figures for `CNc1cc(F)cc2c1[nH]c1nc(Oc3cnc(C)nc3)nc(N3CC(NC(=O)CNC(=O)C(N)CO)C4(CC4)C3)c12` (stereo not shown) [4.127] were 8 µg/mL (≈ 13.8 µM) and over 16 µg/mL.
On to `CNc1cc(F)cc2c1[nH]c1nc(Oc3cnc(C)nc3)nc(N3CC4CC3CC4N)c12` (stereo not shown) [4.128], for which the “MIC Sa” value in the experiment on S. aureus ATCC 13709 is at most 0.5 µg/mL. The “MIC Ec” value against E. coli ATCC 25922 is 4 µg/mL (≈ 9.21 µM).
On the same counts, the results for `CNc1cc(F)cc2c1[nH]c1nc(Oc3cnc(C)nc3)nc(N3CC4CC3CC4N)c12` (stereo not shown) [4.129] are at most 0.5 µg/mL and at most 0.5 µg/mL.
Consider `CNc1cc(F)cc2c1[nH]c1nc(Oc3cnc(C)nc3)nc(N3CC4CC3CC4N)c12` (stereo not shown) [4.130], for which, in the experiment on S. aureus ATCC 13709, the “MIC Sa” value was at most 0.5 µg/mL. Also, the “MIC Ec” value in the experiment on E. coli ATCC 25922 is at most 0.5 µg/mL.
Consider `CNc1cc(F)cc2c1[nH]c1nc(Oc3cnc(C)nc3)nc(N3CCNC4(CC4)C3)c12` [4.132], for which the “MIC Sa” value with S. aureus ATCC 13709 was at most 0.5 µg/mL. Besides, the “MIC Ec” value against E. coli ATCC 25922 was 2 µg/mL (≈ 4.6 µM).
In the case of `CNc1cc(F)cc2c1[nH]c1nc(Oc3cnc(C)nc3)nc(N3CCNCC34CC4)c12` [4.133], the “MIC Sa” value in the experiment with S. aureus ATCC 13709 was over 16 µg/mL. In addition, the “MIC Ec” value against E. coli ATCC 25922 was over 16 µg/mL.
For `CNc1cc(F)cc2c1[nH]c1nc(Oc3cnc(C)nc3)nc(N(C)C3CNC3)c12` [4.134], the “MIC Sa” value in the experiment with S. aureus ATCC 13709 is over 16 µg/mL. The “MIC Ec” value in the experiment with E. coli ATCC 25922 was over 16 µg/mL.
For `CNc1cc(F)cc2c1[nH]c1nc(Oc3cnc(C)nc3)nc(N3CCC(C)(N)CC3)c12` [4.135], the “MIC Sa” value with S. aureus ATCC 13709 is at most 0.5 µg/mL. Moreover, the “MIC Ec” value against E. coli ATCC 25922 came to 1 µg/mL (≈ 2.29 µM).
Taken in the same sequence, the figures for `CNc1cc(F)cc2c1[nH]c1nc(Oc3cnc(C)nc3)nc(N3C[C@H](N)[C@@H](O)C3)c12` [4.136] were 2 µg/mL (≈ 4.71 µM) and 8 µg/mL (≈ 18.8 µM).
For the compound `CNc1cc(F)cc2c1[nH]c1nc(Oc3cnc(C)nc3)nc(N3CC(N)C(F)C3)c12` (stereo not shown) [4.137], the “MIC Sa” value against S. aureus ATCC 13709 is at most 0.5 µg/mL. Also, the “MIC Ec” value against E. coli ATCC 25922 came to 1 µg/mL (≈ 2.35 µM).
On the same counts, the results for `CNc1cc(F)cc2c1[nH]c1nc(Oc3cnc(C)nc3)nc(N3CC(N)C3)c12` [4.138] are at most 0.5 µg/mL and at most 0.5 µg/mL.
With `CNc1cc(F)cc2c1[nH]c1nc(Oc3cnc(C)nc3)nc(N3CCC4(CCC4N)CC3)c12` (stereo not shown) [4.139], the “MIC Sa” value against S. aureus ATCC 13709 was at most 0.5 µg/mL. Also, the “MIC Ec” value against E. coli ATCC 25922 is at most 0.5 µg/mL.
For the compound `CCOC(=O)C1CN(c2nc(Oc3cnc(C)nc3)nc3[nH]c4c(NC)cc(F)cc4c23)CC1N` (stereo not shown) [4.140], the “MIC Sa” value in the experiment on S. aureus ATCC 13709 is at most 0.5 µg/mL. For the same compound, the “MIC Ec” value against E. coli ATCC 25922 is 2 µg/mL (≈ 4.16 µM).
Regarding `CNc1cc(F)cc2c1[nH]c1nc(Oc3cnc(C)nc3)nc(N3CC(NC(=O)C(C)N)C4(CC4)C3)c12` (stereo not shown) [4.142], the “MIC Sa” value with S. aureus ATCC 13709 is at most 0.5 µg/mL. Moreover, the “MIC Ec” value in the experiment with E. coli ATCC 25922 is 1 µg/mL (≈ 1.98 µM).
On the same counts, the results for `CNc1cc(F)cc2c1[nH]c1nc(Oc3cnc(C)nc3)nc(N3CC(CN)C3)c12` [4.143] are at most 0.5 µg/mL and 2 µg/mL (≈ 4.9 µM).
Regarding `CNc1cc(F)cc2c1[nH]c1nc(Oc3cnc(C)nc3)nc(N3CC[C@H](N)[C@@H](F)C3)c12` [4.144], the MIC was at most 0.5 µg/mL in the experiment with S. aureus ATCC 13709 and 1 µg/mL (≈ 2.27 µM) with E. coli ATCC 25922.
For `CNc1cc(F)cc2c1[nH]c1nc(Oc3cnc(C)nc3)nc(N3CC(NC(=O)C(C)NC(=O)C(C)N)C4(CC4)C3)c12` (stereo not shown) [4.145], the “MIC Sa” value against S. aureus ATCC 13709 came out at 1 µg/mL (≈ 1.73 µM). In the experiment on E. coli ATCC 25922, the “MIC Ec” value amounted to 8 µg/mL (≈ 13.9 µM).
With `CNc1cc(F)cc2c1[nH]c1nc(Oc3cnc(C)nc3)nc(N3CC4[C@H](N)C[C@]4(C)C3)c12` (stereo partly shown) [4.146], the MIC against S. aureus ATCC 13709 and in the experiment on E. coli ATCC 25922 was at most 0.5 µg/mL in each case.
`CNc1cc(F)cc2c1[nH]c1nc(Oc3cnc(C)nc3)nc(N3CC4CC(N)C3C4)c12` (stereo not shown) [4.148]: the results for the MIC in the experiment on S. aureus ATCC 13709 and against E. coli ATCC 25922 were at most 0.5 µg/mL and 4 µg/mL (≈ 9.21 µM), respectively.
